Read-outs that look alike come from different tables or passages of the source. Marks after values point to notes of the source that are not given here.
How the values were obtained:
[1] = Cell viability (MTT) assay of flavonoids in Caco-2 cells; format: cell-based; conditions: human
Protocol: The cytotoxicity of flavonoids and colchicine was evaluated by MTT assay. The cells were grown in 96-well plates at a density of 1 × 10^4 cells/well. After incubation with 40 μM flavonoid for 24 h, the cells were further incubated with an MTT solution (0.5 mg/mL) for 4 h at 37 °C. Finally, after removal of the supernatant, 150 μL dimethyl sulphoxide was added to each well to dissolve crystallized MTT. Absorbance was read at 570 nm with a multiskan spectrum microplate reader (Thermo Labsystems, Waltham, MA, USA). The percentage cell viability relative to that of the control cells was used as the cytotoxicity measure.

[2] = Permeability (bidirectional transport) of flavonoids in Caco-2 cell monolayers; format: in vitro ADME; conditions: human; for Papp A→B at 60 min, 40 μM: Caco-2, apical to basolateral; for Papp A→B at 60 min, 40 μM / Papp B→A at 60 min, 40 μM: incubation 60 min, 37 °C, D-Hank's pH 7.4, mean ± SD, n = 3–6; for Papp B→A at 60 min, 40 μM: Caco-2, basolateral to apical; for Papp at 1 h, 40 μM: Caco-2 monolayer
Protocol: Caco-2 cells were cultured in MEM supplemented with 10% FBS, 1% NEAA, penicillin (100 U/mL) and streptomycin (100 μg/mL) in an atmosphere of 5% CO2 and 90% relative humidity at 37 °C. All cells used in this study were between passages 35 and 45 [16].
Caco-2 cells were seeded at a density of about 8 × 10^4 cells/cm^2 on a 12 wells Millicell hanging insert and left to grow for 19–21 days to reach confluence. Culture medium was replaced every other day for 14 days and daily thereafter. The integrity and transport ability of the Caco-2 cells monolayer were examined by measuring the trans-epithelial electrical resistance (TEER) with a Millicell voltammeter (Millicell ERS-2, Merck Millipore, Billerica, MA, USA) and running standard assays using Lucifer yellow CH as paracellular flux marker. […] Differentiation of Caco-2 cells was checked after 4 and 12 days by determining the activity of alkaline phosphatase with an assay kit (Nanjing Jiancheng Bioengineering Institute, Nanjing, China) and after 21 days transmission electron microscopy was performed on Caco-2 monolayer to evaluate differentiation.
The Caco-2 cell monolayer was washed with D-Hank’s buffer (pH 7.4). Then, the flavonoid (40 μM) was added to either the apical (AP, 0.4 mL) or basolateral (BL, 1.95 mL) side, while the receiving chamber contained the corresponding volume of D-Hank’s buffer and incubated for 1 h at 37 °C. Solutions from both AP and BL sides of Caco-2 cell monolayer were collected and immediately frozen, lyophilized and preserved at −80 °C for high performance liquid chromatography (HPLC) analysis. Papp was calculated from Equation (1), where ΔQ/Δt is the rate of the flavonoid on the accepting chamber (μM/s), A is the surface area of the hanging insert (cm^2) and C0 is the initial concentration of tested flavonoid in donating chamber (μM/mL).(1) Papp=ΔQ/Δt/AC0

[3] = system: Caco-2 cell monolayer; assay: Cellular accumulation (CA) of flavonoids in Caco-2 cell monolayer; conditions: for CA A to B: accumulated in cell monolayer after transport apical to basolateral; for CA A to B / CA B to A: 40 μM, 1 h, normalized to cellular protein, mean ± SD, n = 3; for CA B to A: accumulated in cell monolayer after transport basolateral to apical; for CA: both sides (CA A to B and CA B to A)
[4] = Recovery (mass balance) of flavonoids during Caco-2 transport assay; format: in vitro ADME; conditions: human, Caco-2, mass balance, both sides of insert plus cells
Protocol: The recovery of the flavonoid glycosides during the transport assays was determined by mass balance and was measured as total amount of the flavonoids on both sides of the insert and in the Caco-2 cells.

[5] = Caco-2, pH 7.4, as stated in text, direction not specified (bilateral)
[6] = transport apical to basolateral, read-out: Recovery (A to B, %)
[7] = transport basolateral to apical, read-out: Recovery (B to A, %)

Compound | viability at 24 h, 40 μM [1] | Papp A→B at 60 min, 40 μM [2] | Papp B→A at 60 min, 40 μM [2] | CA A to B [3] | CA B to A [3] | Papp at 1 h, 40 μM [2, 5] | recovery [4, 6] | recovery [4, 7] | CA [3] | Papp at 1 h, 40 μM ([2]; pH 7.4, direction not specified (bilateral))
COc1c(O)cc(O)c2c(=O)cc(-c3ccccc3)oc12 [Compound 3, Wogonin] | 97.7 ± 8.39% | 16.4 ± 1.2 ×10⁻⁶ cm/s | 18.1 ± 1.62 ×10⁻⁶ cm/s | 1.038 ± 0.212 µmol/g | 1.586 ± 0.045 µmol/g |  |  |  |  | 
O=c1cc(-c2ccccc2)oc2cc(O)c(O)c(O)c12 [Compound 4, Baicalein] | 96.7 ± 6.31% | 1.95 ± 0.53 ×10⁻⁶ cm/s | 0.71 ± 0.21 ×10⁻⁶ cm/s | 1.182 ± 0.341 µmol/g | 3.272 ± 0.445 ^a μmol/g | < 2 ×10⁻⁶ cm/s |  |  |  | 
O=c1cc(-c2ccc(O)cc2)oc2c([C@@H]3OC[C@H](O)[C@H](O)[C@H]3O)c(O)c([C@@H]3O[C@H](CO)[C@@H](O)[C@H](O)[C@H]3O)c(O)c12 [Compound 8, Schaftoside] | 103 ± 4.77% | 3.28 ± 0.32 ×10⁻⁶ cm/s | 2.81 ± 0.24 ×10⁻⁶ cm/s | 0.024 ± 0.002 µmol/g | 0.044 ± 0.007 µmol/g | < 6 ×10⁻⁶ cm/s | 72.3 ± 18.8% | 61.8 ± 0.72% | < 0.26 µmol/g | 
O=c1c(O)c(-c2ccccc2)oc2cc(O)cc(O)c12 [Compound 9, Galangin] | 106 ± 7.79% | 1.94 ± 0.41 ×10⁻⁶ cm/s | 1.75 ± 0.44 ×10⁻⁶ cm/s | 3.780 ± 0.711 µmol/g | 9.286 ± 0.859 ^b μmol/g |  |  |  |  | 
O=c1c(O)c(-c2ccc(O)cc2O)oc2cc(O)cc(O)c12 [Compound 11, Morin] | 102 ± 3.62% | 8.23 ± 0.87 ×10⁻⁶ cm/s | 21.6 ± 0.32 ×10⁻⁶ cm/s | 0.129 ± 0.008 ^b μmol/g | 0.060 ± 0.011 µmol/g |  | 81.5 ± 6.7% | 90.1 ± 1.39% |  | 
O=c1c(O)c(-c2ccc(O)cc2)oc2cc(O)cc(O)c12 [Compound 12, Kaempferol] | 100 ± 4.53% | 6.68 ± 0.93 ×10⁻⁶ cm/s | 5.92 ± 0.45 ×10⁻⁶ cm/s | 8.368 ± 1.039 µmol/g | 11.887 ± 1.247 ^a μmol/g |  |  |  | > 6 µmol/g | 
COc1ccc(-c2oc3cc(O)cc(O)c3c(=O)c2O)cc1 [Compound 13, Kaempferide] | 102 ± 6.15% | 0.35 ± 0.06 ×10⁻⁶ cm/s | 0.23 ± 0.03 ×10⁻⁶ cm/s | 2.746 ± 0.478 ^b μmol/g | 0.496 ± 0.249 µmol/g |  |  |  |  | 
COc1cc(-c2oc3cc(O)cc(O)c3c(=O)c2O)ccc1O [Compound 15, Isorhamnetin] | 93.6 ± 1.22% | 1.09 ± 0.02 ×10⁻⁶ cm/s | 0.9 ± 0.42 ×10⁻⁶ cm/s | 0.332 ± 0.066 ^a μmol/g | 0.076 ± 0.048 µmol/g |  |  |  |  | 
C[C@@H]1O[C@@H](O[C@H]2[C@H](Oc3cc(O)c4c(c3)O[C@H](c3ccc(O)cc3)CC4=O)O[C@H](CO)[C@@H](O)[C@@H]2O)[C@H](O)[C@H](O)[C@H]1O [Compound 20, Naringin] | 99.1 ± 4.92% | 3.73 ± 0.73 ×10⁻⁶ cm/s | 5.09 ± 1.55 ×10⁻⁶ cm/s | 0.058 ± 0.013 µmol/g | 0.068 ± 0.011 µmol/g | < 6 ×10⁻⁶ cm/s | 93.2 ± 7.62% | 82.9 ± 11% |  | 
O=C1c2c(O)cc(O)cc2OC(c2ccc(O)c(O)c2)C1O (stereo not shown) [Compound 22, Taxifolin] | 99.5 ± 2% | 6.32 ± 1.16 ×10⁻⁶ cm/s | 26.1 ± 2.08 ×10⁻⁶ cm/s |  |  | > 20 ×10⁻⁶ cm/s |  |  | not detected | 
COc1ccc(-c2coc3cc(O)ccc3c2=O)cc1 [Compound 23, Formononetin] | 94.6 ± 3.6% | 17.4 ± 1.78 ×10⁻⁶ cm/s | 18.3 ± 1.83 ×10⁻⁶ cm/s | 3.819 ± 1.320 µmol/g | 4.842 ± 0.424 µmol/g | > 10 ×10⁻⁶ cm/s |  |  |  | 
COc1cc2c(=O)c(-c3ccc(O)cc3)coc2cc1O [Compound 25, Glycitein] | 98.3 ± 4.6% | 12.4 ± 0.91 ×10⁻⁶ cm/s | 6.23 ± 0.46 ×10⁻⁶ cm/s | 1.821 ± 0.774 ^a μmol/g | 0.158 ± 0.021 µmol/g | > 10 ×10⁻⁶ cm/s |  |  |  | 
O=c1c(-c2ccc(O)cc2)coc2cc(O)ccc12 [Compound 26, Daidzein] | 105 ± 4.56% | 33.9 ± 3.55 ×10⁻⁶ cm/s | 42.2 ± 3.11 ×10⁻⁶ cm/s | 0.500 ± 0.104 µmol/g | 1.236 ± 0.117 ^b μmol/g | > 30 ×10⁻⁶ cm/s |  |  |  | 
O=c1c(-c2ccc(O)cc2)coc2cc(O)cc(O)c12 [Compound 27, Genistein] | 103 ± 3.37% | 31.1 ± 2.13 ×10⁻⁶ cm/s | 30.5 ± 2.13 ×10⁻⁶ cm/s | 1.415 ± 0.276 µmol/g | 2.777 ± 0.220 ^b μmol/g |  |  |  | < 5 µmol/g | > 30 ×10⁻⁶ cm/s
COc1ccc(-c2coc3cc(O)cc(O)c3c2=O)cc1 [Compound 28, Biochanin A] | 106 ± 6.44% | 11.1 ± 0.51 ×10⁻⁶ cm/s | 10.7 ± 2.98 ×10⁻⁶ cm/s | 6.766 ± 1.583 µmol/g | 14.087 ± 1.287 ^b μmol/g | > 10 ×10⁻⁶ cm/s |  |  | > 6 µmol/g | 
O=C(/C=C/c1ccc(O)cc1)c1ccc(O)cc1O [Compound 29, Isoliquiritigenin] | 99.2 ± 7.94% | 13.8 ± 0.73 ×10⁻⁶ cm/s | 20 ± 1.29 ×10⁻⁶ cm/s | 4.393 ± 0.790 µmol/g | 8.804 ± 1.576 ^a μmol/g |  |  |  |  | 
COc1ccc(CCC(=O)c2c(O)cc(O[C@@H]3O[C@H](CO)[C@@H](O)[C@H](O)[C@H]3O[C@@H]3O[C@@H](C)[C@H](O)[C@@H](O)[C@H]3O)cc2O)cc1O [Compound 30, Neohesperidin dihydrochalcone] | 102 ± 6.35% | 4.25 ± 0.53 ×10⁻⁶ cm/s | 5.08 ± 1.08 ×10⁻⁶ cm/s | 0.096 ± 0.010 µmol/g | 0.251 ± 0.012 µmol/g | < 6 ×10⁻⁶ cm/s | 78.7 ± 1.3% | 79.5 ± 1.24% |  | 
